Source: US8901337B2, “Metal complexes having dual histone deacetylase inhibitory and DNA-binding activity” (Royal College of Surgeons in Ireland, priority 2009, dated 2014)

Columns and labels:
[1] = tested on: DNA in SW480 cells (colon cancer); experiment: Pt binding to DNA in cultured cells (ICP-MS), SW480; format: cell-based; conditions: 2 hours of cell treatment
Method: Pt DNA binding of Pt complexes was measured in SW480 cells (colon cancer) and CH1 cells (lymphoma) or alternatively A2780 P and A2780 cisR cells (sensitive and resistant to cisplatin respectively). The cells were seeded in 60 mm tissue culture dishes with 10 ml of their respective medium. After overnight incubation the medium was removed and replaced with 10 ml of the respective medium containing a platinum complex giving a final concentration of 43 or 40 μM depending on the experiment. The cells were incubated with a given Pt complex for either 2 or 4 h depending on the experiment. The cells were trypsinised and centrifuged. The supernantant was removed and the cells washed twice with 1×PBS and centrifuged. The pellet was re-suspended in DNA buffer to which Proteinase K (20 mg/mL) and 10% SDS were added. After a gentle shake and incubation at 45° C. for two hours, RNAse (100 mg/mL) was added and the cells were incubated at 37° C. overnight. The volume of supernatant was noted and an equal volume of phenol was added.
The resulting mixture was shook for 10 min, then centrifuged for 10 min at 10° C. The supernatant was transferred into a new centrifuge tube (15 ml) and the volume was noted. To this was added an equal volume of phenol and chloroform/isoamylalcohol (24:1). The resulting mixture was shook for 10 min, then centrifuged for 10 min at 10° C. (3000 RPM). The supernatant was transferred into a new centrifuge tube (15 mL) and the volume was noted. To this was added an equal volume of chloroform. The resulting mixture was shook for 10 min, then centrifuged for 10 min at 10° C. The supernatant was transferred into a new centrifuge tube (15 mL) and the volume was noted. To this was added a volume that is 1/10 of the supernatant of 3 M sodium acetate (Ph 5.2) and three times the volume of cold 100% isopropanol (from freezer). The solution was shook gently until the DNA is precipitated. […] The absorbance of the DNA by was measured by UV spectrophotometry at 260 nm and 280 nm and the concentration of DNA calculated. Platinum bound to DNA was determined by ICP-MS.

[2] = tested on: liver cell lines (Hep-G2); experiment: MTS in vitro cytotoxicity, Hep-G2; format: cell-based; conditions: 72 hours, Table 1, read-out: IC50 values against Hep-G2
Method: All cells were kept in a humidified atmosphere with 5% CO2 at 37° C.; cells from confluent monolayers were removed from flasks by trypsin/EDTA solution and their viability determined by the trypan blue exclusion test.
Cell growth was determined by the [3-(4,5-dimethylthiazol-2-yl)-5-(3-carboxymethoxyphenyl)-2-(4-sulfophenyl)-2H-tetrazolium, inner salt, (MTS test, Promega, Southampton, UK), a colorimetric assay based on the ability of the viable cells to reduce a soluble yellow tetrazolium salt to blue formazan. 10,000 ovarian cancer cells or 3,000 fibroblast cells for example were seeded per well onto 96-well plates in 100 μl of the appropriate culture medium. 24 hr after sowing the cells, the media was removed and the cells were treated by adding 100 μl of the compound media solutions at the appropriate concentrations. cis-[Pt(NH3)2(malSAHA−2H)], cisplatin and cis-[Pt(NH3)2(mal)] were prepared freshly in cell culture media. […] The maximum percentage of dmso present in any well was less than 0.1% (v/v). cis-[Pt(NH3)2(malBel—2H)], belinostat and malbelinostat were freshly prepared in dimethyl formamide (DMF) and diluted in culture media prior to the MTS assay. The maximum percentage of DMF present in any well was 0.5% (v/v). A range of concentrations between 1 μM and 100 μM was used.
After 72 hr of treatment, 20 μl of the MTS reagent was added to each well and the plates incubated for 2 hr at 37° C. […] The percentages of surviving cells relative to untreated controls were determined.

[3] = tested on: A2780 P cells; experiment: Morphological analysis (methylene blue/eosin and DAPI staining), A2780 P; format: cell-based, human; conditions: IC50 and IC75, 72 hr
Method: Preparations of A2780 P and A2780-cisR cells were exposed to test agents for 72 hr and stained with methylene blue and eosin^19. Drug-treated cells were grown in petri dishes, washed once with PBS, once with PBS:methanol (1:1, v/v), and then fixed in 100% (v/v) methanol for 10 min. Following fixation, cell monolayers were rinsed with anhydrous methanol and stained with methylene blue and eosin for 2 min. Monolayers were then agitated for a further 2 min, destained by rinsing under a gentle stream of water and then finally rinsed with distilled water. Phase contrast microscopy was carried out using a Ceti-phase contrast microscope.
Drug-treated cells were also stained using a DNA-binding agent commonly used to stain nuclei and visualise nuclear morphology and DNA condensation, namely 4,6-diamidino-2-phenylindole (DAPI). Briefly, a monolayer of drug-treated cells was washed in PBS and fixed with 4% (w/v) paraformaldehyde for 30 min at room temperature. These cells were then permeabilized with 0.2% (v/v) Triton X in PBS and incubated with 1 μg/ml of DAPI for 30 min. Cells were again washed three times with PBS and viewed using a fluorescent microscope with 340/380 nm excitation filter at 250× magnification. Apoptotic cells were confirmed by identification of intensely stained, fragmented nuclei and condensed chromatin.

[4] = tested on: A2780 P ovarian cancer cells; experiment: Cell cycle progression, flow cytometry (propidium iodide); format: cell-based, human; conditions: 72 hr
Method: Both floating and attached cells were collected by centrifugation, washed twice in ice-cold PBS, pH 7.4, harvested by scraping with a rubber policeman, and then collected by centrifugation. The effect of drug treatment on cell cycle progression was determined using flow cytometric analysis according to the method of Nunez (2001).^21 Briefly, cell suspensions were fixed and permeabilised by vigorous addition of nine volumes of ice-cold 70% (v/v) ethanol and stored at −20° C. for a minimum of 24 h, prior to analysis. Cells at a density of approximately 1×10^6 were re-suspended in 800 μl of propidium iodide staining solution (20 μg/ml propidium iodide and 200 μg/ml RNase A in PBS, pH 7.4) and incubated in the dark at room temperature for 30 min. The percentage of cells in the sub-G1, G0/G1, S and G2/M phases of the cell cycle was determined over a range of concentrations and time points, and analysed from at least three independent experiments using Cell Quest™ software (Becton Dickinson).

| SMILES | binding of Pt to DNA in cultured cells (in words) ([1]; SW480 and CH1 cells) | IC50 [2] | cellular morphology and integrity of DNA [3] | % G0/G1 ± S.E.M. ([4]; concentration equal to IC50) | % G2/M ± S.E.M. ([4]; concentration equal to IC50) | % S ± S.E.M. ([4]; concentration equal to IC50) | % Sub-G1 ± S.E.M. ([4]; concentration equal to IC50) | % G0/G1 ± S.E.M. ([4]; concentration equal to IC75) | % G2/M ± S.E.M. ([4]; concentration equal to IC75) | % S ± S.E.M. ([4]; concentration equal to IC75) | % Sub-G1 ± S.E.M. ([4]; concentration equal to IC75) | DNA-bound Pt in SW480 ([1]; 43 μM of Pt complexes) | sub-G1 accumulation (in words) ([4]; A2780 P) |
| --- | --- | --- | --- | --- | --- | --- | --- | --- | --- | --- | --- | --- | --- |
| [NH2][Pt]1([NH2])[O]C(=O)C(Cc2ccc(NC(=O)CCCCCCC(=O)NO)cc2)C(=O)[O]1 [cis-[Pt(NH3)2(malSAHA−2H)], cis-[Pt(NH3)2(malSAHA−2H)].3H2O] | binds DNA in cultured cells after 2 hours of cell treatment | 47.8 ± 4 µM |  |  |  |  |  |  |  |  |  |  |  |
| N.N.[Cl][Pt][Cl] [cisplatin, cis-[Pt^II(NH3)2Cl2], reference compound] |  | 39.8 ± 3.5 µM | considerable thinning of the monolayer, attenuation of cells and the nuclei to be intensively stained and fragmented | 18.58 ± 0.58% | 5.44 ± 0.04% | 5.33 ± 0.13% | 64.16 ± 0.74% | 20.88 ± 0.14% | 4.73 ± 0.13% | 5.81 ± 0.30% | 61.81 ± 0.39% | 38.5 · 10^−15 moles of Pt/μg of DNA |  |
| [NH2][Pt]1([NH2])[O]C(=O)C(Cc2ccc(NS(=O)(=O)c3ccc(/C=C/C(=O)NO)cc3)cc2)C(=O)[O]1 [cis-[Pt(NH3)2(malBel−2H)], cis-[Pt(NH3)2(malBel−2H)].1.5H2O] |  |  | considerable thinning of the monolayer, attenuation of cells and the nuclei to be intensively stained and fragmented | 16.16 ± 0.88% | 7.91 ± 0.03% | 7.21 ± 0.11% | 60.86 ± 0.26% | 11.75 ± 0.17% | 8.04 ± 0.72% | 5.59 ± 0.36% | 67.67 ± 0.43% |  | dose dependent increase in sub-G1 accumulation compared to control cells |
